The experiment addresses Cyclin-dependent kinase 2/cyclin E1 (Homo sapiens, UniProt P24941). In words: Inhibition of recombinant full length wild-type CDK2/Cyclin E1 (unknown origin) expressed in baculovirus expression system assessed as […] using 5-FAM-QSPKKG-CONH2 peptide as substrate preincubated with enzyme for 15 mins followed by further incubation with ATP for 45 mins by fluorescence-based microfluidic mobility shift assay.

Molecules are shown by their SMILES.

In general, Ki refers to the equilibrium dissociation constant of an inhibitor or competing ligand from its target. `COc1ccc(CC(=O)Nc2cc([C@@H]3CC[C@H](OC(=O)N4CCC4(C)C)C3)[nH]n2)cn1`: the Ki worked out at 0.12 nM.

As for `Cc1ncc(CC(=O)Nc2cc([C@H]3CC[C@@H](OC(=O)N4C[C@@H](C#N)[C@@H]4C)C3)[nH]n2)s1` (single isomer, unassigned), the Ki worked out at 0.15 nM.

Consider `COc1ccc(CC(=O)Nc2cc([C@H]3CC[C@@H](OC(=O)N4C[C@@H](C#N)[C@@H]4C)C3)[nH]n2)cn1` (single isomer, unassigned), for which the Ki is 0.17 nM.

For `CCC(CO)CNC(=O)O[C@@H]1CC[C@H](c2cc(NC(=O)Cc3ccc(OC)nc3)n[nH]2)C1` (single isomer, unassigned), the Ki is 0.77 nM.

These data come from ChEMBL document CHEMBL4665901, “Novel CDK2 Inhibitors for Treating Cancer” (ACS Med Chem Lett, 2020).
